US12409199B2, “Methods of treating endometriosis and other noncancer gynecological disorders with hemp extract” (Ecofibre USA Inc., priority 2021, dated 2025)
Where two headings read alike, the source gives them in different places.

Assays:
[1] = system: patient derived organoids; assay: Death of patient derived organoids, % of cells that died compared to control (Table 4); format: cell-based, human
Method: In addition to the agents listed above, several other drugs were tested to see if they influenced organoid growth. […] This is consistent with the patient's actual lack of response to treatment with paclitaxel.

[2] = system: stage IV chemoresistant endometrial cancer with metastatic disease; assay: Treatment of a patient with stage IV chemoresistant endometrial cancer, PET/CT follow up
Text: Soon after the experiments detailed above a person came to us. They were initially diagnosed with endometriosis, and later diagnosed with endometrial cancer after presenting with significant pain and discomfort. They had already undergone a total hysterectomy and bilateral salpingo-oophorectomy followed by five rounds of chemotherapy. Each of the first five rounds of chemotherapy was a combined chemotherapy with Paclitaxil/Carboplatin.
See, Tables 1 and 2, below. […] As such, […] began standard protocol GemCap treatment in combination with a regime of 30 mg of BSHE twice daily via oral mucosal delivery and 75 mg of FSHE once daily via intravaginal delivery.

[3] = cited from earlier work
[4] = system: patient derived endometrial cancer cells; assay: Patient-derived xenograft (PDX) mice, endometrial cancer tumor volume (FIG. 7); format: in vivo; settings: for decrease in tumor volume compared to starting size: day 14 (6 doses)
Method: Mouse studies are useful to take cell-based applications and confirm their efficacy in a whole animal system. Furthermore, the mice allow for testing of systemic delivery of the drugs. […] The mice tests were performed according to the protocol in the method section, below.
Generally, EC stem cells from the same patients that participated in the organoid studies for endometrial cancer, were injected into the mice, and allowed to grow. After tumors reached a certain size, the mice were either injected (3 times/week) with the extract-delivery vehicle or with the particular cannabis extract. After a certain amount of time elapsed, tumor size was measured. The details regarding patient-derived xenograft methodology and experimental protocol are provided in the Methods section.
The % change is an average number taken from tumor volumes of three mice compared to the starting average tumor volume on day 0 of treatment. Change can either be positive (tumor increases in size) or negative (tumor decreases in size).
Human patient cells from endometrial cancer were injected subcutaneously into female NOD/SCID gamma mice after resuspending in 100 μL solution. […] Tumor size was measured before treatment, followed by twice a week measurements. All treatment group mice were kept alive for up to 10 weeks after drug injection or until the tumor volume grows bigger than 2500 mm^3.
Tumor size was measured along with body weight at the time of tissue collection. All tumor tissues were removed carefully from the euthanized mouse body. Tumor tissue samples were kept for histology, proteomics, genomics, and other downstream processing. All downstream processing was completed following NCI Patient-Derived Models Repository SOPs.

[5] = system: non-transformed cells; settings: cited from earlier work
[6] = system: organoids derived from ovarian cancer tissue; assay: Impact of pH on % viable organoids (FIG. 9)
[7] = oral; cited from earlier work
[8] = system: endometriosis based organoids; assay: % viability of endometriosis based organoids (FIG. 6A/6B); format: cell-based, human
Method: After narrowing down the range in which 50% of endometrial cancer organoids were inhibited from forming in the presence of BSHE, we then turned to other cannabis extracts comprising CBE to determine their efficacy in inhibiting cancerous organoid formation. […] These cannabis extracts were then tested against endometrial based organoids, which confirm the efficacy across the different cells, both in the endometrial cancer based organoids as well as in the endometriosis based organoids.
FIG. 6B then tests the same endometrial based organoids with a CBDA isolate. Here, slightly higher concentrations were required to reach below 10% viability. […] However, these studies confirm that the efficacy of the CE comprising CBD was conserved over different grades of endometrial cancer and also to endometriosis based organoids.

[9] = system: organoids crafted from the patient's endometrial cancer; assay: Response of organoids crafted from the patient's endometrial cancer to alternative chemotherapies and BSHE; format: cell-based, human
Text: See, Tables 1 and 2, below.

[10] = before cannabis extract treatment

## N.N.O=C([O-])C1(C(=O)[O-])CCC1.[Pt+2] [Carboplatin]
[1]
  % Cell Death: 30%

## Atezolizumab
[2]; [10]
  adverse effects of earlier therapy: severe adverse effects
  clinical outcome of earlier therapy: failed

## O=P1(N(CCCl)CCCl)NCCCO1 (centres unmarked) [Cyclosphosphamide]
[1]
  % Cell Death: 32%

## Paclitaxil/Carboplatin [reference compound]
[2]; [10]
  clinical outcome of earlier therapy: ineffective

## 5-Fluorouaracil/Capecitabine
[1]
  % Cell Death: 61%

## Bleomycin
[1]
  % Cell Death: 53%

## CCN1CCN(Cc2ccc(Nc3ncc(F)c(-c4cc(F)c5nc(C)n(C(C)C)c5c4)n3)nc2)CC1 [Abemaciclib, reference compound]
[2]; human, in vivo
  adverse effects of earlier therapy: severe adverse effects

## N.N.[Cl][Pt][Cl] [Cisplatin]
[1]
  % Cell Death: 36%

## C=C(C)[C@@H]1CCC(C)=C[C@H]1c1c(O)cc(CCCCC)cc1O [CBD isolate, cannabidiol]
[3]; WHO 41st Expert Committee on Drug Dependence
  potential for abuse or dependence: no potential for abuse and no potential to produce dependence
[3]; chronic use, humans
  well tolerated dose: up to 1,500 mg/day
[3]; in vivo
  effect on physiological parameters (heart rate, blood pressure and body temperature), gastrointestinal transit, psychomotor or psychological functions: does not affect
[4]; 30 mg/kg injected 3 times/week
  tumor response over the 21 days of treatment: not as responsive
[4]; 30 mg/kg
  decrease in tumor volume compared to starting size: less than 50%
[5]
  toxicity: non-toxic
[6]; 10 μg/mL, pH 8
  efficacy compared with native pH: virtually no change
[6]; pH 4
  viability at 10 µg/mL: < 1%
[6]; read-out: % of viable organoids
  viability at 10 µg/mL: ~12%
[7]
  delayed maximum plasma concentration (time) in some individuals: up to 6 hours
[8]; tested at 0, 1, 2, 3, 4, 5, 7, 10 μg/mL, FIG. 6A
  lowest dose at which the organoids are completely treated: 5 µg/mL

## gemcitabine/capecitabine [GemCap]
[9]
  response of the patient's organoids: partial response

## C=C(C)[C@@H]1CCC(C)=C[C@H]1c1c(O)cc(CCCCC)c(C(=O)O)c1O [CBDA isolate, cannabidiolic acid]
[4]; 30 mg/kg injected 3 times/week, day 7 (3 doses)
  increase in average tumor volume vs day 0: greater than 30%
[4]; 30 mg/kg injected 3 times/week, day 10
  decrease in average tumor volume vs day 0: greater than 30%
[4]; 30 mg/kg, day 7 to day 10
  overall decrease in average tumor volume in three days: greater than 60%
[4]; 30 mg/kg
  decrease in tumor volume compared to starting size: 70%
[4]; 30 mg/kg, day 21 (9 doses)
  decrease in average tumor volume: ~100%
[8]; 50 μg/mL, FIG. 6B
  viability outcome: complete resolution
[8]; Homo sapiens, 15 μg/mL, FIG. 6B
  viability at 15 µg/mL: < 50%
[8]; Homo sapiens, 25 μg/mL, FIG. 6B, <10% is considered 95-100% cell death
  viability at 25 µg/mL: < 10%
